What was measured:
[1] = test system: HIV-1IIIb; assay: Antiviral activity in MT-2/HIV-1IIIb cultures; type: cell-based; details: Human immunodeficiency virus 1
[2] = test system: HIV-1 BaL; assay: p24 production antiviral assay in monocyte-derived macrophages; type: cell-based; details: Human immunodeficiency virus 1, Macrophage, HIV-1BaL infected
Source text: Antiviral assays performed in HIV-1BaL infected CD4 +T-lymphocytes and monocyte-derived macrophages (MDMs) have been described previously ([18]). Cell-free supernatants derived from the CD4 +T cell and macrophage cultures were harvested 7- and 12-days post-infection, respectively, and the amount of HIV present was quantified by p24 antigen enzyme-linked immunosorbent assay (ELISA, Perkin Elmer, Waltham, MA) performed according to the manufacturer’s protocol.

[3] = test system: SARS-CoV-2; assay: SARS-CoV2-Nluc reporter antiviral assay; details: Severe acute respiratory syndrome coronavirus 2
Experimental: (§4) The hepatitis B virus (HBV) surface antigen (HBsAg) antiviral assay was performed as previously described ([28]) using ND-654 as a positive control. The respiratory syncytial virus (RSV) A2 HEp-2 antiviral assay was performed as previously described ([29]) using YM-53403 as a positive control. The severe acute respiratory syndrome coronavirus 2 (SARS-CoV-2) antiviral assay was performed as described previously ([30]) using remdesivir as a positive control.

[4] = Cytotoxicity in CD4+ T-lymphocytes; type: cell-based; details: human, uninfected (mock infected) primary CD4+ T lymphocytes
Experimental: (§1) Compound cytotoxicity assessment in MT-4 cells, primary CD4+ T lymphocytes, and MDMs was carried out using a protocol identical to the antiviral assay except uninfected cells were used and tested with higher concentration ranges of test compounds. Assessment of cytotoxicity in additional human cell lines (Gal-PC3, Gal-HepG2, HEp-2, Huh-7, MRC-5, HepG2-NTCP, Huh7-Lunet HCV 1b and 2a replicons, NHBE, A549-hACE2) and primary human PBMCs (resting and stimulated with PHA/IL-2) and hepatocytes have been described previously ([19]). For all cytotoxicity assays, the CC50 value for puromycin was determined as a positive internal control and to assess assay sensitivity in each cell type. The effect of tested compounds on cell viability was measured using a CellTiter-Glo readout, performed according to the manufacturer’s recommendations.

[5] = test system: HCV-2a; assay: microbe, parasite or virus in culture; details: Hepatitis C virus, Huh-7
[6] = Cytotoxicity in MRC-5; type: cell-based; details: human, MRC-5 cells
Experimental: as §1

[7] = test system: HBV, HCV, RSV, SARS-CoV-2; assay: Antiviral activity against panel of non-HIV viruses (summary); details: read-out: EC50 range across non-HIV viruses
Experimental: Antiviral assays using appropriate cell lines infected with non-HIV viruses were also performed. […] The hepatitis B virus (HBV) surface antigen (HBsAg) antiviral assay was performed as previously described ([28]) using ND-654 as a positive control. The respiratory syncytial virus (RSV) A2 HEp-2 antiviral assay was performed as previously described ([29]) using YM-53403 as a positive control. The severe acute respiratory syndrome coronavirus 2 (SARS-CoV-2) antiviral assay was performed as described previously ([30]) using remdesivir as a positive control.

[8] = test system: RSV; assay: RSV-Fluc reporter antiviral assay; details: human respiratory syncytial virus, NHBE
Experimental: as §4

[9] = test system: two HIV-2 isolates; assay: Antiviral assay in PBMCs with HIV-2 clinical isolates (RT endpoint); type: cell-based; details: Human immunodeficiency virus 2, PBMC, 168 h, 7-day, RT activity
Experimental: Antiviral assays using fresh human PBMCs independently infected with a panel of clinical HIV-1 and HIV-2 isolates were performed by Southern Research as a contracted research study and assessed 7 days post-infection using reverse transcriptase (RT) endpoint assay. Antiviral assays using HIV-1 reporter viruses containing patient-derived sequences encoding all of PR and a portion of RT (amino acids 1–313) and conferring resistance to FDA-approved HIV PIs were performed by Monogram Biosciences Inc. (South San Francisco, CA) using their previously described Phenosense assay ([25]).

[10] = In vivo pharmacokinetics in dog; design: species or system Beagle dog
Experimental: (§2) Preclinical pharmacokinetic studies were performed in male Sprague–Dawley rats, beagle dogs, and cynomolgus monkeys (three animals per dosing group in each species) following federal and Institutional Animal Care and Use Committee (IACUC) guidelines as described previously ([32]). […] The oral fraction absorbed (F%) was calculated using the formula:
(§3) %F=( PO Dose AUC0−inf) x (IV Dose)/(IV Dose AUC0−inf) x (PO Dose)×100%

[11] = in vitro; type: cell-based; details: human
Experimental: as §1

[12] = In vivo pharmacokinetics in monkey; details: cynomolgus monkey
Experimental: as §2, §3

[13] = Cytotoxicity in primary human hepatocytes; type: cell-based
Experimental: as §1

[14] = Cytotoxicity across human cell types (summary ranges); type: cell-based; details: read-out: mean CC50 range
Experimental: as §1

[15] = test system: HIV-1IIIb; assay: Two-drug in vitro combination assay in MT-2 cells (MacSynergy II); type: cell-based
Experimental: Anti-HIV-1 assays evaluating the in vitro antiviral effect of two-drug combinations were performed in MT-2 cells as previously described ([26]). Data were normalized to positive and negative controls in each plate and expressed as a percentage of protection from CPE-dependent cell death and analyzed with the MacSynergy II software. Combination data were analyzed at the 99% confidence level, with synergy/antagonism volumes defined as follows: high synergy (>100 µM^2%), moderate synergy (50 to <100 uM^2%), additivity (>−50 to <50 µM^2%), and antagonism (<−50 µM^2%).

[16] = Metabolic stability in human liver microsomes; type: in vitro ADME
[17] = test system: HIV-1 Gag (p55) polyprotein cleavage; assay: Gag polyprotein processing immunoblot in transfected HEK293T cells; type: cell-based; details: 2 days post-transfection, anti-p24 immunoblot

Work on `CC(C)(CC1(c2ccc(-c3cnn(C4CC4)n3)cc2)NC(=N)N(C(COC(=O)NC2(C(F)F)CC2)c2ccc(Cl)c(-c3ncnn3C(F)F)c2)C1=O)C(F)(F)F` (stereo not drawn) [GS-9770] yielded an EC50 [1] of 0.004 µM, an EC50 [2] of 0.011 ± 0.014 µM and an EC50 [3] of 5.3 ± 1.9 µM. It also gave a CC50 [4] of 9 ± 0.4 µM, an EC50 [5] of 10.4 ± 0.3 µM and a CC50 [6] of 20 ± 6 µM. It also gave an EC50 [7] of 2.5 to 34 µM, an EC50 [8] of 2.5 ± 0.6 µM and an EC50 [9] of 0.026 µM. The CL ([10]; 1 mg/kg IV, 1 mg/kg) was 18.3 ± 5 mL/min/kg, the “tolerability at the doses tested” value ([10]; 1 mg/kg IV, 4–5 mg/kg PO) was “well tolerated” and the bioavailability ([10]; beagle, plasma, 1 mg/kg IV and 5 mg/kg PO, read-out: F% (oral bioavailability)) was 100 ± 20%. The half-life ([10]; beagle, plasma, 1 mg/kg IV and 5 mg/kg PO, read-out: Terminal t1/2 (converted)) was 6.7 ± 0.6 h, the Vd ([10]; beagle, plasma, 1 mg/kg IV, read-out: Vss) was 5 ± 0.5 L/kg and the clearance ([10]; beagle, plasma, iv, 1 mg/kg, 1 mg/kg IV) was 18.8 mL/min/kg. The CC50 [11] was 15.1 ± 2.1 µM, the “tolerability at the doses tested” value ([12]; 1 mg/kg IV, 4–5 mg/kg PO) was “well tolerated” and the clearance ([12]; plasma, 1 mg/kg IV) was 5.67 mL/min/kg. It also gave a bioavailability ([12]; plasma, 1 mg/kg IV and 4 mg/kg PO, read-out: F% (oral bioavailability)) of 100 ± 34%, a half-life ([12]; plasma, 1 mg/kg IV and 4 mg/kg PO, read-out: Terminal t1/2 (converted)) of 7.4 ± 0.2 h and a Vd ([12]; plasma, 1 mg/kg IV, read-out: Vss) of 2.6 ± 0.8 L/kg. The CC50 [13] was 34 ± 16 µM, the CC50 ([14]; Gal-HepG2 and MRC-5 cells, five human cell lines (Gal-PC3, HEp-2, Huh7, Gal-HepG2, MRC-5)) was 13 to 20 µM and the CC50 ([14]; human, human cell lines and primary cells (15 cell types), across 15 different cell types) was 4.7 to 34 µM. The CC50 ([14]; primary human hepatocytes and PBMCs (stimulated and unstimulated)) was 9.1 to 34 µM, the Antagonism volume [15] was −3 ± 3 µM^2.% and the Combination effect [15] was “Additive”. The Synergy volume [15] was 23 ± 14 µM^2.%, the “Eh% (percent predicted hepatic extraction)” value [16] was 9% and the “Predicted CL (predicted human clearance)” value [16] was 1.83 mL/min/kg. For the same compound, the half-life ([16]; read-out: T½ in the presence of human liver microsomes) was greater than 6.58 h, the “concentration at which Gag polyprotein cleavage and release of mature p24 substantially reduced” value [17] was 10 nM and the “concentration giving complete inhibition of p24 formation” value [17] was 100 nM.

From article PMC10989020, “Preclinical characterization of a non-peptidomimetic HIV protease inhibitor with improved metabolic stability” (Antimicrobial Agents and Chemotherapy, 2024)
